According to ChEMBL document CHEMBL4118210, “Synthesis of novel hetero ring fused pyridine derivatives; Their anticancer activity, CoMFA and CoMSIA studies” (Bioorg Med Chem Lett, 2018):

Columns and labels:
[1] = system: HeLa; test: Antiproliferative activity against human HeLa cells by MTT assay; assay type: functional, cell-based
[2] = system: COLO 205; test: Antiproliferative activity against human COLO205 cells by MTT assay; assay type: functional, cell-based
[3] = system: HepG2; test: Antiproliferative activity against human HepG2 cells by MTT assay; assay type: functional, cell-based
[4] = system: HEK293; test: Antiproliferative activity against human HEK293 cells by MTT assay; assay type: cell-based
[5] = system: MCF7; test: Antiproliferative activity against human MCF7 cells by MTT assay; assay type: functional, cell-based

| SMILES | IC50 ([1]; read-out: IC50) | IC50 ([1]; read-out: pIC50 (converted)) | IC50 ([2]; read-out: IC50) | IC50 ([2]; read-out: pIC50 (converted)) | IC50 [3] | IC50 [4] | IC50 ([5]; read-out: IC50) | IC50 ([5]; read-out: pIC50 (converted)) |
| --- | --- | --- | --- | --- | --- | --- | --- | --- |
| Cc1ccc(/C=N/NC(=O)c2oc3nc(-c4cccs4)cc(C(F)(F)F)c3c2N)cc1 | 24.4 µM | 9.12 µM | 21.2 µM | 10.2 µM | 19.8 µM | 78 µM | 18.7 µM | 11.2 µM |
| Nc1c(C(=O)NC2CCCC2)oc2nc(-c3ccccc3)cc(C(F)(F)F)c12 | 25.8 µM | 25.7 µM | 51.1 µM | 51.3 µM | 32.4 µM | 85 µM | 59.8 µM | 60.3 µM |
| O=c1c2oc3nc(-c4ccccc4)cc(C(F)(F)F)c3c2ncn1/N=C/c1ccccc1 | > 220 mg/L | – | > 220 mg/L | – | > 220 mg/L | > 220 mg/L | > 220 mg/L | – |
| Nc1c(C(=O)N/N=C/c2ccc(Cl)cc2)oc2nc(-c3cccs3)cc(C(F)(F)F)c12 | 8 µM | 7.94 µM | 7.8 µM | 7.94 µM | 8.1 µM | 83 µM | 7.4 µM | 7.41 µM |
| O=c1c2oc3nc(-c4ccccc4)cc(C(F)(F)F)c3c2ncn1/N=C/c1ccc(Br)cc1 | > 220 mg/L | – | > 220 mg/L | – | > 220 mg/L | > 220 mg/L | > 220 mg/L | – |
| Cc1nc2c(oc3nc(-c4cccs4)cc(C(F)(F)F)c32)c(=O)n1C1CCCC1 | > 220 mg/L | – | > 220 mg/L | – | > 220 mg/L | 124 µM | > 220 mg/L | 11.7 µM |
| CCCn1cnc2c(oc3nc(-c4cccs4)cc(C(F)(F)F)c32)c1=O | > 220 mg/L | – | > 220 mg/L | – | > 220 mg/L | > 220 mg/L | > 220 mg/L | – |
| CCNC(=O)c1oc2nc(-c3ccccc3)cc(C(F)(F)F)c2c1N | 36.2 µM | 36.3 µM | 29.2 µM | 28.8 µM | 42.8 µM | 70 µM | 54 µM | 53.7 µM |
| O=c1c2oc3nc(-c4cccs4)cc(C(F)(F)F)c3c2ncn1/N=C/c1ccccc1 | 42.3 µM | 42.7 µM | > 220 mg/L | – | > 220 mg/L | 90 µM | > 220 mg/L | – |
| CCn1cnc2c(oc3nc(-c4cccs4)cc(C(F)(F)F)c32)c1=O | > 220 mg/L | – | > 220 mg/L | – | > 220 mg/L | > 220 mg/L | > 220 mg/L | – |
| Nc1c(C(=O)NC2CCCC2)oc2nc(-c3cccs3)cc(C(F)(F)F)c12 | 21.8 µM | 21.9 µM | 18.4 µM | 18.6 µM | 20.8 µM | 51 µM | 22.9 µM | 22.9 µM |
| CNC(=O)c1oc2nc(-c3cccs3)cc(C(F)(F)F)c2c1N | 15.6 µM | 15.5 µM | 17.8 µM | 17.8 µM | 12.3 µM | 75 µM | 18 µM | 18.2 µM |
| Cc1nc2c(oc3nc(-c4ccccc4)cc(C(F)(F)F)c32)c(=O)n1C | > 220 mg/L | – | > 220 mg/L | – | > 220 mg/L | > 220 mg/L | > 220 mg/L | – |
| O=c1c2oc3nc(-c4cccs4)cc(C(F)(F)F)c3c2ncn1/N=C/c1ccc(Cl)cc1 | > 220 mg/L | – | 51.2 µM | 51.3 µM | > 220 mg/L | 102 µM | 42.1 µM | 42.7 µM |
| Nc1c(C(=O)N/N=C/c2ccccc2)oc2nc(-c3cccs3)cc(C(F)(F)F)c12 | 11.8 µM | 11.7 µM | 9.7 µM | – | 9.9 µM | 72 µM | 12.1 µM | 12 µM |
| Cc1ccc(/C=N/n2cnc3c(oc4nc(-c5ccccc5)cc(C(F)(F)F)c43)c2=O)cc1 | > 220 mg/L | – | > 220 mg/L | – | > 220 mg/L | > 220 mg/L | > 220 mg/L | – |
| Nc1c(C(=O)N/N=C/c2ccccc2)oc2nc(-c3ccccc3)cc(C(F)(F)F)c12 | 13.4 µM | 13.5 µM | 12.2 µM | 12.3 µM | 13.1 µM | 70 µM | 14.2 µM | 14.1 µM |
| Cc1ccc(/C=N/n2cnc3c(oc4nc(-c5cccs5)cc(C(F)(F)F)c43)c2=O)cc1 | 42.3 µM | 42.7 µM | > 220 mg/L | – | > 220 mg/L | > 220 mg/L | 29.7 µM | 29.5 µM |
| CCn1cnc2c(oc3nc(-c4ccccc4)cc(C(F)(F)F)c32)c1=O | > 220 mg/L | – | > 220 mg/L | – | > 220 mg/L | 121 µM | 82.4 µM | 83.2 µM |
| Cc1nc2c(oc3nc(-c4cccs4)cc(C(F)(F)F)c32)c(=O)n1C | > 220 mg/L | – | > 220 mg/L | – | > 220 mg/L | > 220 mg/L | > 220 mg/L | – |
| O=c1[nH]cc(F)c(=O)[nH]1 [FLUOROURACIL] | – | – | – | – | 1.7 µM | 19.6 µM | – | – |
